This passage reports IC50 results from patent publication US10179782B2, “Substituted sulfonamide compounds” (Genentech, Inc., priority 2016, dated 2019).

The term IC50 denotes the midpoint of a concentration-inhibition curve.

Read-outs that look alike come from different tables or passages of the source.

The target of the assay is T1, human TRPA1 (Homo sapiens, UniProt O75762).
T1 construct: expressed in transfected cells; host or cells: CHO cells
The experiment in a line: TRPA1 FLIPR Tetra calcium influx assay in CHO cells (block of cinnamaldehyde-induced calcium influx). Format: cell-based. The settings on record: CHO cells expressing TRPA1, agonist cinnamaldehyde 75 uM, read-out: hTRPA1 CHO Ca2+ AUC EVO (IC50). How it is done:
IC50s (effective concentration) of compounds on the human and rat TRPA1 channels were determined using a FLIPR Tetra instrument. CHO cells expressing TRPA1 were plated into 384-well plates, incubated overnight at 37 C, and loaded with BD calcium indicator dye for 1 hr at 37° C. followed by 15 minutes at room temperature. The assay buffer was Hank's Balanced Salt Solution (HBSS) containing 20 mM HEPES (pH readjusted to 7.4) along with 0.02% BSA.
Following dye load and plate cool down, compounds were added to the cells using FLIPR Tetra. Plates were then incubated with compounds for 20 minutes at room temperature prior to adding agonist. Following this incubation, ˜EC80 concentration of cinnamaldehyde (75 uM for human TRPA1 and 45 uM for rat TRPA1) was added to active the channels and block of cinnamaldehyde induced calcium influx was measured.
IC50s were fit with a standard Hill function, keeping the Hill coefficient (n) fixed to 1.5. Fixing the Hill coefficient will generally reduce variability of the IC50 determination. The IC50s were individually examined to make sure the MIN and MAX points were set correctly prior to validation of the results.

Setting [1] is: Table 2, 20 min compound incubation, Hill coefficient fixed to 1.5.

T1 sequence (O75762 whole entry): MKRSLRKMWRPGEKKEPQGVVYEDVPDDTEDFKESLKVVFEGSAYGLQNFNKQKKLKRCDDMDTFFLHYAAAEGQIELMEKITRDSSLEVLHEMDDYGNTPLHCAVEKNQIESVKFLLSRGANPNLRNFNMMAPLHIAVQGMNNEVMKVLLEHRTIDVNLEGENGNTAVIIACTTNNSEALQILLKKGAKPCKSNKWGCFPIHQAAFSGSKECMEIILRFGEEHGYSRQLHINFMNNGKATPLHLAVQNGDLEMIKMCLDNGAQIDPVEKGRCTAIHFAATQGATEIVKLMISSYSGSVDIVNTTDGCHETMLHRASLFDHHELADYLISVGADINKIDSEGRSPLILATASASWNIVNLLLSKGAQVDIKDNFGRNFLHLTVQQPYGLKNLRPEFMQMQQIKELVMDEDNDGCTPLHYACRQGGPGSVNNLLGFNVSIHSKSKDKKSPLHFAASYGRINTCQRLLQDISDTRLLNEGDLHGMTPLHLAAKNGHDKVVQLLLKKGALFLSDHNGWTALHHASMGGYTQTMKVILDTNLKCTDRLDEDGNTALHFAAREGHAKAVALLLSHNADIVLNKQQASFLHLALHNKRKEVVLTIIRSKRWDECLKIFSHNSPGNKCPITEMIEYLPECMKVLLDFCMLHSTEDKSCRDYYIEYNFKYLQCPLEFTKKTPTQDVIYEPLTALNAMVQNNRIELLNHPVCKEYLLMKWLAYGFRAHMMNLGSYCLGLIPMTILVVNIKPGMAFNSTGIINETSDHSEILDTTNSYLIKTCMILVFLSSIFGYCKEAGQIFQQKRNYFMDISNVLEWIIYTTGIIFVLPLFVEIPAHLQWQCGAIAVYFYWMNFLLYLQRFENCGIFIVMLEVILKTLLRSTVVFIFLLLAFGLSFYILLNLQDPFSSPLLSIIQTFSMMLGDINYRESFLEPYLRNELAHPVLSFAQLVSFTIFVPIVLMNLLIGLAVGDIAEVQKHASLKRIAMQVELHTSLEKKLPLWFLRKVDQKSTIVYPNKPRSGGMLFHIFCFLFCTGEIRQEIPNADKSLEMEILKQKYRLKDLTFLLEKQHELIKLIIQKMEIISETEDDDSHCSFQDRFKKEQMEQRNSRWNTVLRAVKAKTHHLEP

On to `C[C@H]1[C@H](F)C[C@@H](C(=O)NCc2cc(-c3cnc(C(F)(F)F)nc3)cnc2C2CC2)N1S(=O)(=O)c1ccc(F)cc1` [Example 110, (2S,4R,5S)-N-[[2-cyclopropyl-5-[2-(trifluoromethyl)pyrimidin-5-yl]-3-pyridyl]methyl]-4-fluoro-1-(4-fluorophenyl)sulfonyl-5-methyl-pyrrolidine-2-carboxamide], for which the concentration for half-maximal inhibition (IC50) under setting [1] came out at 10.6 nM. As to `C[C@H]1[C@H](F)C[C@@H](C(=O)NCc2cc(-c3cnc(C(F)(F)F)nc3)ccc2F)N1S(=O)(=O)c1ccc(F)cc1` [Example 14, (2S,4R,5S)-4-fluoro-1-(4-fluorophenyl)sulfonyl-N-[[2-fluoro-5-[2-(trifluoromethyl)pyrimidin-5-yl]phenyl]methyl]-5-methyl-pyrrolidine-2-carboxamide], under setting [1], the IC50 is 2.14 nM.

On to `C[C@H]1[C@H](F)C[C@@H](C(=O)NCc2cc(-c3cnc(C(F)(F)F)nc3)ncc2C(F)(F)F)N1S(=O)(=O)c1cncc(F)c1` [Example 159, (2S,4R,5S)-4-fluoro-1-[(5-fluoro-3-pyridyl)sulfonyl]-5-methyl-N-[[5-(trifluoromethyl)-2-[2-(trifluoromethyl)pyrimidin-5-yl]-4-pyridyl]methyl]pyrrolidine-2-carboxamide], for which the IC50 under setting [1] turned out to be 2.31 nM. Turning to `C[C@H]1[C@H](F)C[C@@H](C(=O)NCc2cc(OCc3cncc(C(F)(F)F)c3)c(F)cn2)N1S(=O)(=O)c1ccc(F)cc1` [Example 48, (2S,4R,5S)-4-fluoro-N-((5-fluoro-4-((5-(trifluoromethyl)pyridin-3-yl)methoxy)pyridin-2-yl)methyl)-1-(4-fluorophenylsulfonyl)-5-methylpyrrolidine-2-carboxamide], the IC50 under setting [1] came out at 105 nM.

For the molecule `C[C@H]1[C@H](F)C[C@@H](C(=O)NCc2cc(-c3cnc(C(F)(F)F)nc3)nc(C3CC3)c2C#N)N1S(=O)(=O)c1ccc(F)cc1` [Example 104, (2S,4R,5S)—N-((3-cyano-2-cyclopropyl-6-(2-(trifluoromethyl)pyrimidin-5-yl)pyridin-4-yl)methyl)-4-fluoro-1-(4-fluorophenylsulfonyl)-5-methylpyrrolidine-2-carboxamide], the IC50 under setting [1] was 0.682 nM.

Take `C[C@H]1[C@H](F)C[C@@H](C(=O)NCc2cc(-c3cnc(C(F)(F)F)nc3)ncc2C(F)(F)F)N1S(=O)(=O)c1ccc(Cl)nc1` [Example 161, (2S,4R,5S)-1-[(6-chloro-3-pyridyl)sulfonyl]-4-fluoro-5-methyl-N-[[5-(trifluoromethyl)-2-[2-(trifluoromethyl)pyrimidin-5-yl]-4-pyridyl]methyl]pyrrolidine-2-carboxamide]: the IC50 under setting [1] was 1.96 nM. For the molecule `C[C@H]1[C@H](F)C[C@@H](C(=O)NCc2nc(-c3cnc(C(F)(F)F)nc3)ncc2C(F)(F)F)N1S(=O)(=O)c1ccc(F)cc1` [Example 135, (2S,4R,5S)-4-fluoro-1-(4-fluorophenyl)sulfonyl-5-methyl-N-[[5-(trifluoromethyl)-2-[2-(trifluoromethyl)pyrimidin-5-yl]pyrimidin-4-yl]methyl]pyrrolidine-2-carboxamide], the half-maximal inhibitory concentration (IC50) under setting [1] came out at 19.3 nM. Consider `C[C@H]1[C@H](F)C[C@@H](C(=O)NCc2cc(-c3cnc(C(F)(F)F)nc3)ncc2F)N1S(=O)(=O)c1cc2ccccc2s1` [Example 98, (2S,4R,5S)-1-(benzothiophen-2-ylsulfonyl)-4-fluoro-N-[[5-fluoro-2-[2-(trifluoromethyl)pyrimidin-5-yl]-4-pyridyl]methyl]-5-methyl-pyrrolidine-2-carboxamide], for which the concentration for half-maximal inhibition (IC50) under setting [1] was 5.61 nM.

With `N#Cc1cc(F)c(-c2cnc(C(F)(F)F)nc2)cc1CNC(=O)[C@@H]1C[C@@H](F)CN1S(=O)(=O)c1ccc(F)cc1` [Example 64, (2S,4R)-N-[[2-cyano-4-fluoro-5-[2-(trifluoromethyl)pyrimidin-5-yl]phenyl]methyl]-4-fluoro-1-(4-fluorophenyl)sulfonyl-pyrrolidine-2-carboxamide], the IC50 under setting [1] amounted to 44.5 nM. Regarding `O=C(NCc1cc(-c2cnc(C(F)(F)F)nc2)nc(C2CC2)n1)[C@@H]1C[C@@H](F)CN1S(=O)(=O)c1ccc(F)cc1` [Example 73, (2S,4R)-N-[[2-cyclopropyl-6-[2-(trifluoromethyl)pyrimidin-5-yl]pyrimidin-4-yl]methyl]-4-fluoro-1-(4-fluorophenyl)sulfonyl-pyrrolidine-2-carboxamide], the half-maximal inhibitory concentration (IC50) under setting [1] was found to be 56.7 nM.

Take `O=C(NCc1cc(-c2cnc(C(F)(F)F)nc2)ncn1)[C@@H]1C[C@@H]2C[C@@H]2N1S(=O)(=O)c1ccc(F)cc1` [Example 18, (1S,3S,5S)-2-(4-fluorophenyl)sulfonyl-N-[[6-[2-(trifluoromethyl)pyrimidin-5-yl]pyrimidin-4-yl]methyl]-2-azabicyclo[3.1.0]hexane-3-carboxamide]: the half-maximal inhibitory concentration (IC50) under setting [1] was 29.8 nM.

Take `C[C@H]1[C@H](F)C[C@@H](C(=O)NCc2cc(-c3cnc(C(F)(F)F)nc3)c(C3CC3)cn2)N1S(=O)(=O)c1ccc(F)cc1` [Example 49, (2S,4R,5S)-N-[[5-cyclopropyl-4-[2-(trifluoromethyl)pyrimidin-5-yl]-2-pyridyl]methyl]-4-fluoro-1-(4-fluorophenyl)sulfonyl-5-methyl-pyrrolidine-2-carboxamide]: the half-maximal inhibitory concentration (IC50) under setting [1] turned out to be 36.7 nM.

For `C[C@H]1[C@H](F)C[C@@H](C(=O)NCc2cc(C(F)(F)F)nc(C3CC3)n2)N1S(=O)(=O)c1cc2cc(F)ccc2o1` [Example 120, (2S,4R,5S)-N-[[2-cyclopropyl-6-(trifluoromethyl)pyrimidin-4-yl]methyl]-4-fluoro-1-(5-fluorobenzofuran-2-yl)sulfonyl-5-methyl-pyrrolidine-2-carboxamide], under setting [1], the half-inhibitory concentration (IC50) was 1.52 nM. As to `C[C@H]1[C@H](F)C[C@@H](C(=O)NCc2cc(-c3cnc(C(F)(F)F)nc3)nc(C3CC3)c2)N1S(=O)(=O)c1ccc(F)cc1` [Example 121, (2S,4R,5S) N-[[2-cyclopropyl-6-[2-(trifluoromethyl)pyrimidin-5-yl]-4-pyridyl]methyl]-4-fluoro-1-(4-fluorophenyl)sulfonyl-5-methyl-pyrrolidine-2-carboxamide], the concentration for half-maximal inhibition (IC50) under setting [1] was found to be 1.45 nM. As to `C[C@H]1[C@H](F)C[C@@H](C(=O)NCc2cc(-c3cnc(C(F)(F)F)nc3)ncc2C#N)N1S(=O)(=O)c1ccc(F)cc1` [Example 51, (2S,4R,5S)-N-[[5-cyano-2-[2-(trifluoromethyl)pyrimidin-5-yl]-4-pyridyl]methyl]-4-fluoro-1-(4-fluorophenyl)sulfonyl-5-methyl-pyrrolidine-2-carboxamide], the IC50 under setting [1] was 15.5 nM. Same read-out and setting: the figure for `C[C@H]1[C@H](F)C[C@@H](C(=O)NCc2cc(-c3cnc(C(F)(F)F)nc3)c(F)c(C3CC3)n2)N1S(=O)(=O)c1ccc(F)cc1` [Example 131, (2S,4R,5S)-N-[[6-cyclopropyl-5-fluoro-4-[2-(trifluoromethyl)pyrimidin-5-yl]-2-pyridyl]methyl]-4-fluoro-1-(4-fluorophenyl)sulfonyl-5-methyl-pyrrolidine-2-carboxamide] is 4.04 nM. On to `O=C(NCc1ccnc(-c2cnc(C(F)(F)F)nc2)c1)[C@@H]1C[C@@H](F)CN1S(=O)(=O)c1ccc(F)cc1` [(2S,4R)-4-fluoro-1-(4-fluorophenyl)sulfonyl-N-[[2-[2-(trifluoromethyl)pyrimidin-5-yl]-4-pyridyl]methyl]pyrrolidine-2-carboxamide, reference compound], for which the half-maximal inhibitory concentration (IC50) (Table 1, with vs without substituent at R2/R3) was 129 nM.
